Assay [1] relates to HSC-2 oral epithelial cells. In words: Cell viability assay to assess anti- and pro-apoptotic effects (vinblastine, Alamar Blue). The format is cell-based. The note with it: HSC-2 cells. Here is the method:
Plasmids containing Tammar wallaby LAMs were directionally cloned into the expression vector pCMV Sport 6.0, and then transfected into the human kidney cell line HK293. A total of 1 μg of LAM-containing plasmid DNA and 10 ng of pEGFP-C1 plasmid was introduced into 70% confluent HK293 cells in 2 cm^2 wells containing 500 ul of opti-MEM-1 media. Transfection success was assessed by observing green fluorescence of cells by fluorescent microscopy. After 48 hours conditioned media containing the secreted polypeptide was collected and frozen at −20° C. The media containing the secreted polypeptides was then used directly in a variety of bioactivity assays. For the assays described below, samples of secreted polypeptides were aliquoted into individual wells of 96 or 384 well plates and stored, prior to assaying, either frozen or lyophilized.
A negative control created by transfection with an insertless vector was used in all assays. For the assays described in Examples 4A, 4B, 4C and 4D results for samples were in the form of relative fluorescence units (RFU) as described herein. […] In some cases, RFU less than two standard deviations from the mean were considered significant if the LAM sample in question produced a positive result in another assay.
Vinblastine is a commonly used cytotoxic agent used in chemotherapy. It induces apoptosis in a wide variety of cell types. Caspase activation and DNA fragmentation are hallmarks of the apoptotic process.
Aliquots of the secreted polypeptide samples in 96 well plates were pipetted onto HSC-2 oral epithelial cells and the cells left for 24 hours. After this time, the cells were treated with vinblastine to induce apoptosis. After a further 48 hours, the cells were analyzed for survival using a vital dye, namely Alamar Blue (resazurin) fluorescent dye (TGR BioSciences Pty Ltd, Adelaide, Australia). This dye method is a TGR proprietary assay technology and as such would be known by a person skilled in the art. Internal controls for induction of cell death via apoptosis as well as assay performance were also included on each plate. Cell survival measurements with this technique reflected the degree of apoptosis.
On the technique in general: Resazurin is reduced to fluorescent resorufin, in cell work by metabolically active cells.

The subject of assay [2] is MDA-MB-231 cells. In words: MDA-MD-231 Matrigel outgrowth assay. The format is cell-based. As to conditions: MDA-MB-231 cells on Matrigel, after 5 days, compared to control (OPTIMEM). Here is the method:
FIG. 14: Matrigel outgrowth assay. Monolayers of cells (MDA-MD-MB231) were grown to 80% confluence and collected during log phase. 5×10^3 cells were added per well (96 well format) on top of preset Matrigel (50 ul). 50 ul of bioactive supematant was added per well. Colony outgrowth was monitored over the course of the experiment and photographed after 2 (FIG. 14A) and 5 (FIG. 14B) days.
Monolayers of cells (MDA-MD-MB231) were grown in DMEM+10% FCS to 80% confluence and collected during log phase. Cells were removed from plastic using versene/trypsin (2 min/370C) and resuspended in 10 ml media. Cell were washed thrice with PBS and centrifugation. 5×10^3 cells were added per well (96 well format) on top of preset Matrigel (50 ul). 50 ul of bioactive supernatant was added per well. Colony outgrowth was monitored over the course of the experiment and photographed after 2 and 5 days.

“LAM 13: PLA2G1B; tammar wallaby polypeptide SEQ ID NO 43, bovine polypeptide SEQ ID NO 103”: the “RFU (anti-apoptotic activity)” value in assay [1] (vinblastine, Alamar Blue, Mean RFU 679787, SD RFU 39919, negative control 696444 RFU) turned out to be 779746 RFU. The “anti- or pro-apoptotic activity (RFU versus mean)” value in assay [1] (text summary of Tables 8-11) is reported as “anti-apoptotic activity”. Also, in assay [2], the proliferation of cells entry was “increased proliferation of cells”.

For the origin of these results see patent publication US20110201105A1, “LACTATION-ASSOCIATED POLYPEPTIDES” (Dairy Australia Limited, priority 2007, published 2011).
